Measured values reported in patent US20250082674A1, “METHODS OF TREATING COPPER METABOLISM-ASSOCIATED DISEASES OR DISORDERS” (priority 2021, published 2025).
Like-named read-outs stand apart in the source and are kept apart here.

System: patients with Wilson disease (WD)
Description: The UWDRS Part II total score results for this pooled population are presented in Table 16 and FIG. 13 and the UWDRS Part III total score results are in Table 17 and FIG. 14. The UWDRS Part III Functional Subscale (comprised of the items arising from a chair, gait, handwriting and speech) results for this pooled population are presented in Table 18 and FIG. 15.

## Bis-choline tetrathiomolybdate [BC-TTM]
BC-TTM exposure 4 wks
  UWDRS Part III (Range 0-175) LSM change from baseline: −0.83
  UWDRS Part III (Range 0-175) Mean change from baseline: −0.72
  UWDRS Part III Functional Subscale (Range 0-10) LSM change from baseline: −0.083
  UWDRS Part III Functional Subscale (Range 0-10) Mean change from baseline: −0.072
BC-TTM exposure 12 wks
  UWDRS Part III (Range 0-175) LSM change from baseline: −1.13
  UWDRS Part III (Range 0-175) Mean change from baseline: −1.11
  UWDRS Part III Functional Subscale (Range 0-10) LSM change from baseline: −0.141
  UWDRS Part III Functional Subscale (Range 0-10) Mean change from baseline: −0.137
BC-TTM exposure 24 wks
  UWDRS Part III (Range 0-175) LSM change from baseline: −1.10
  UWDRS Part III (Range 0-175) Mean change from baseline: −0.97
  UWDRS Part III Functional Subscale (Range 0-10) LSM change from baseline: −0.146
  UWDRS Part III Functional Subscale (Range 0-10) Mean change from baseline: −0.157
BC-TTM exposure 36 wks
  UWDRS Part III (Range 0-175) LSM change from baseline: −1.85
  UWDRS Part III (Range 0-175) Mean change from baseline: −2.38
  UWDRS Part III Functional Subscale (Range 0-10) LSM change from baseline: −0.202
  UWDRS Part III Functional Subscale (Range 0-10) Mean change from baseline: −0.286
BC-TTM exposure 48 wks
  UWDRS Part III (Range 0-175) LSM change from baseline: −2.76
  UWDRS Part III (Range 0-175) Mean change from baseline: −3.37
  UWDRS Part III Functional Subscale (Range 0-10) LSM change from baseline: −0.285
  UWDRS Part III Functional Subscale (Range 0-10) Mean change from baseline: −0.345
BC-TTM exposure 60 wks
  UWDRS Part III (Range 0-175) LSM change from baseline: −3.24
  UWDRS Part III (Range 0-175) Mean change from baseline: −2.00
  UWDRS Part III Functional Subscale (Range 0-10) LSM change from baseline: −0.355
  UWDRS Part III Functional Subscale (Range 0-10) Mean change from baseline: −0.422
BC-TTM exposure 72 wks
  UWDRS Part III (Range 0-175) LSM change from baseline: −4.43
  UWDRS Part III (Range 0-175) Mean change from baseline: −4.93
  UWDRS Part III Functional Subscale (Range 0-10) LSM change from baseline: −0.399
  UWDRS Part III Functional Subscale (Range 0-10) Mean change from baseline: −0.494
BC-TTM exposure 96 wks
  UWDRS Part III (Range 0-175) LSM change from baseline: −6.32
  UWDRS Part III (Range 0-175) Mean change from baseline: −7.95
  UWDRS Part III Functional Subscale (Range 0-10) LSM change from baseline: −0.607
  UWDRS Part III Functional Subscale (Range 0-10) Mean change from baseline: −0.900
BC-TTM exposure 120 wks
  UWDRS Part III (Range 0-175) LSM change from baseline: −6.69
  UWDRS Part III (Range 0-175) Mean change from baseline: −8.92
  UWDRS Part III Functional Subscale (Range 0-10) LSM change from baseline: −0.660
  UWDRS Part III Functional Subscale (Range 0-10) Mean change from baseline: −0.946
BC-TTM exposure 144 wks
  UWDRS Part III (Range 0-175) LSM change from baseline: −7.70
  UWDRS Part III (Range 0-175) Mean change from baseline: −9.78
  UWDRS Part III Functional Subscale (Range 0-10) LSM change from baseline: −0.803
  UWDRS Part III Functional Subscale (Range 0-10) Mean change from baseline: −1.042
BC-TTM exposure 168 wks
  UWDRS Part III (Range 0-175) LSM change from baseline: −9.48
  UWDRS Part III (Range 0-175) Mean change from baseline: −18.08
  UWDRS Part III Functional Subscale (Range 0-10) LSM change from baseline: −0.903
  UWDRS Part III Functional Subscale (Range 0-10) Mean change from baseline: −1.841
BC-TTM exposure 192 wks
  UWDRS Part III (Range 0-175) LSM change from baseline: −6.13
  UWDRS Part III (Range 0-175) Mean change from baseline: −12.65
  UWDRS Part III Functional Subscale (Range 0-10) LSM change from baseline: −0.437
  UWDRS Part III Functional Subscale (Range 0-10) Mean change from baseline: −1.250
BC-TTM exposure 216 wks
  UWDRS Part III (Range 0-175) LSM change from baseline: −6.52
  UWDRS Part III (Range 0-175) Mean change from baseline: −16.17
  UWDRS Part III Functional Subscale (Range 0-10) LSM change from baseline: −0.430
  UWDRS Part III Functional Subscale (Range 0-10) Mean change from baseline: −1.519
BC-TTM exposure 240 wks
  UWDRS Part III (Range 0-175) LSM change from baseline: −6.49
  UWDRS Part III (Range 0-175) Mean change from baseline: 11.48
  UWDRS Part III Functional Subscale (Range 0-10) LSM change from baseline: −0.607
  UWDRS Part III Functional Subscale (Range 0-10) Mean change from baseline: −0.898
BC-TTM exposure 264 wks
  UWDRS Part III (Range 0-175) LSM change from baseline: −9.57
  UWDRS Part III (Range 0-175) Mean change from baseline: −14.00
